Earlier results, collected in PMC5641551, “Chemical Proteomics for Target Discovery of Head-to-Tail Cyclized Mini-Proteins” (Frontiers in Chemistry, 2017).

System: FK-binding protein 12
Conditions: no reference given; cited from earlier work

## CO[C@H]1C[C@@H]2CC[C@@H](C)[C@@](O)(O2)C(=O)C(=O)N2CCCC[C@H]2C(=O)O[C@H]([C@H](C)C[C@@H]2CC[C@@H](O)[C@H](OC)C2)CC(=O)[C@H](C)/C=C(\C)[C@@H](O)[C@@H](OC)C(=O)[C@H](C)C[C@H](C)/C=C/C=C/C=C/1C [rapamycin]
  binding to FK-binding protein 12: binds to the protein FK-binding protein 12
